The source of these data is PubChem BioAssay (NCI).

Among the test systems are RPMI-8226 leukemia; SW-620 colon; KM12 colon; HOP-92 NSCLC; SK-OV-3 ovarian; NCI-H226 lung; SF-268 CNS; EKVX NSCLC; HCC-2998 colon; MOLT-4 leukemia.
Common to all, as to experiment: NCI-60 cell line screen, 48 h

Molecules are shown by their SMILES.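 Grown in 96-well plates, cells were treated for 48 hours with each compound at five concentrations. Insufficient inhibition: endpoint recorded as highest concentration tested. GI50 = concentration required for 50% inhibition of growth. At the TGI there is no net growth.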 Some results are limits rather than exact numbers.

As for `C[C@]12CC[C@H]3[C@@H](CCC4=CC(=O)CC[C@@]43C)[C@@H]1CC[C@@H]2c1csc(N)n1`, the GI50 in the experiment with RPMI-8226 leukemia is 1.21 µM; in the experiment with SW-620 colon it was 5.28 µM; in the experiment on KM12 colon, 3 µM; with HOP-92 NSCLC it was 11 µM; in the experiment on SK-OV-3 ovarian, 12.5 µM; in the experiment with NCI-H226 lung, 4.61 µM. Further, the GI50 with SF-268 CNS was 5.07 µM; in the experiment with EKVX NSCLC, 1.12 µM; in the experiment with HCC-2998 colon, 5.08 µM; in the experiment with MOLT-4 leukemia it was 2.5 µM. Further, the TGI was determined as 26.2 µM in the experiment with RPMI-8226 leukemia; 20.8 µM with SW-620 colon; 11.6 µM with KM12 colon; 28.5 µM in the experiment with HOP-92 NSCLC; 33.3 µM with SK-OV-3 ovarian; 23.7 µM with NCI-H226 lung. The TGI in the experiment on SF-268 CNS was determined as 24.1 µM; in the experiment with EKVX NSCLC it was 8.39 µM; with HCC-2998 colon it was 19.6 µM; with MOLT-4 leukemia it was 11.2 µM.
Turning to `CCN=c1sc2c(n1NC(=O)c1cc3ccc1CCc1ccc(cc1)CC3)C(=O)c1ccccc1C2=O`, the GI50 with RPMI-8226 leukemia was 0.769 µM; in the experiment with SW-620 colon, 0.593 µM; with KM12 colon, 1.02 µM; in the experiment with HOP-92 NSCLC, 0.772 µM; with SK-OV-3 ovarian, 4.49 µM; with NCI-H226 lung, 2.21 µM. Also, the GI50 was 0.604 µM with SF-268 CNS, 0.632 µM with EKVX NSCLC, 0.824 µM in the experiment on HCC-2998 colon and 0.634 µM in the experiment with MOLT-4 leukemia. Besides, the TGI in the experiment on RPMI-8226 leukemia worked out at 2.2 µM; in the experiment with SW-620 colon, 1.29 µM; with KM12 colon, 3.83 µM; in the experiment on HOP-92 NSCLC, 2.83 µM; in the experiment with SK-OV-3 ovarian it was 8.95 µM; in the experiment on NCI-H226 lung, 7.33 µM. The TGI was determined as 1.62 µM with SF-268 CNS, 1.66 µM in the experiment with EKVX NSCLC, 2.1 µM with HCC-2998 colon and 1.94 µM in the experiment on MOLT-4 leukemia.
As for `CN[C@@H](C)C(=O)N[C@H]1CN(S(=O)(=O)c2cccc(S(=O)(=O)N3CC[C@H]4CC[C@@H](C(=O)NC(c5ccccc5)c5ccccc5)N4C(=O)[C@@H](NC(=O)[C@H](C)NC)C3)c2)CC[C@H]2CC[C@@H](C(=O)NC(c3ccccc3)c3ccccc3)N2C1=O`, the GI50 in the experiment on RPMI-8226 leukemia is 3.92 µM; in the experiment with SW-620 colon it was 31.7 µM; with KM12 colon it was 16.7 µM; with HOP-92 NSCLC, 7.71 µM; with NCI-H226 lung, 28.9 µM; in the experiment with SF-268 CNS, 20.9 µM. Also, the GI50 in the experiment with EKVX NSCLC is 25.2 µM; in the experiment with HCC-2998 colon, 11 µM; in the experiment on MOLT-4 leukemia, 47 µM. The TGI in the experiment with RPMI-8226 leukemia was 99.2 µM; in the experiment with SW-620 colon, above 100 µM; in the experiment with KM12 colon, 34.3 µM; in the experiment on HOP-92 NSCLC, 27.4 µM; in the experiment on NCI-H226 lung it was above 100 µM; in the experiment with SF-268 CNS, 47.8 µM. The TGI in the experiment on EKVX NSCLC was above 74 µM; in the experiment with HCC-2998 colon, 27.2 µM; with MOLT-4 leukemia, above 100 µM.
On to `C[C@]12Cc3cn[nH]c3C(=O)C1CC[C@@H]1C2CC[C@@]2(C)C1CC[C@@H]2O` (stereo not given in full), for which the TGI in the experiment with RPMI-8226 leukemia, in the experiment on SW-620 colon, with KM12 colon, in the experiment on HOP-92 NSCLC, in the experiment on SK-OV-3 ovarian and in the experiment with NCI-H226 lung was above 100 µM throughout. The TGI with SF-268 CNS, in the experiment on EKVX NSCLC and in the experiment on MOLT-4 leukemia was above 100 µM throughout.
For `CC1(C)N=C(N)N=C(N)N1c1ccc(CCC(=O)Nc2ccc(S(=O)(=O)F)cc2)cc1`, the GI50 with RPMI-8226 leukemia is 1.22 µM; in the experiment on SW-620 colon it was 0.371 µM; in the experiment on KM12 colon, 0.64 µM; in the experiment on HOP-92 NSCLC, 5.31 µM; in the experiment with SK-OV-3 ovarian, above 70.2 µM; in the experiment on NCI-H226 lung, 7.35 µM. In addition, the GI50 in the experiment on SF-268 CNS was 1.31 µM; in the experiment with HCC-2998 colon, 3.85 µM; with MOLT-4 leukemia it was 4.62 µM. The TGI in the experiment with RPMI-8226 leukemia, in the experiment with SW-620 colon, with KM12 colon, in the experiment on HOP-92 NSCLC, in the experiment on SK-OV-3 ovarian and with NCI-H226 lung was above 100 µM in each case. Moreover, the TGI with SF-268 CNS, in the experiment with HCC-2998 colon and in the experiment with MOLT-4 leukemia was above 100 µM each time.
Turning to `N#CC1c2ccccc2C=CN1C(=O)CCCl` (stereo not given), the GI50 was 2.66 µM in the experiment with RPMI-8226 leukemia; 2.36 µM in the experiment with SW-620 colon; 16.9 µM in the experiment on KM12 colon; 1.53 µM with HOP-92 NSCLC; 17.2 µM with SK-OV-3 ovarian; 17.6 µM in the experiment with NCI-H226 lung. Moreover, the figures for the GI50 in the experiment with SF-268 CNS, with HCC-2998 colon and in the experiment with MOLT-4 leukemia were 15.2 µM, 16.9 µM and 7.88 µM, respectively. Also, the TGI in the experiment on RPMI-8226 leukemia turned out to be 9.25 µM; in the experiment with SW-620 colon, 6.53 µM; in the experiment on KM12 colon it was 42.6 µM; with HOP-92 NSCLC, 3.76 µM; with SK-OV-3 ovarian, 31.3 µM; in the experiment on NCI-H226 lung, 54.9 µM. In addition, the TGI amounted to 30.9 µM in the experiment on SF-268 CNS, 32 µM in the experiment on HCC-2998 colon and 51.2 µM with MOLT-4 leukemia.
In the case of `CCn1cc(C(=O)O)c(=O)c2cc(F)c(N3CCN(S(=O)(=O)c4cccc5ccccc45)CC3)cc21`, the GI50 with RPMI-8226 leukemia was 2.79 µM; in the experiment on SW-620 colon it was 3.57 µM; in the experiment on KM12 colon, 2.96 µM; in the experiment on HOP-92 NSCLC it was 1.25 µM; with SK-OV-3 ovarian, 3.11 µM; in the experiment with NCI-H226 lung, 3.71 µM. The GI50 in the experiment on SF-268 CNS was 4.39 µM; with HCC-2998 colon, 4.26 µM; with MOLT-4 leukemia, 4.46 µM. The TGI was 9.73 µM in the experiment on RPMI-8226 leukemia; above 100 µM in the experiment on SW-620 colon; 9.2 µM with KM12 colon; 5.43 µM with HOP-92 NSCLC; 13.4 µM in the experiment on SK-OV-3 ovarian; above 100 µM in the experiment on NCI-H226 lung. In addition, the TGI in the experiment on SF-268 CNS was above 100 µM; in the experiment with HCC-2998 colon, 61.9 µM; with MOLT-4 leukemia it was above 100 µM.
As to `Cc1ccc2c(c1)CN1c3ccc(C)cc3CN2C1c1ccccc1O`, the TGI with RPMI-8226 leukemia, in the experiment with SW-620 colon, in the experiment on KM12 colon, with HOP-92 NSCLC, with SK-OV-3 ovarian and in the experiment with NCI-H226 lung was above 100 µM each time. Besides, the figures for the TGI with SF-268 CNS, in the experiment on EKVX NSCLC and with MOLT-4 leukemia were above 100 µM, 54.9 µM and above 100 µM, respectively.
